Here are results for two compounds from paper PMC10044245, “Comparative Evaluation of Existing and Rationally Designed Novel Antimicrobial Peptides for Treatment of Skin and Soft Tissue Infections” (Antibiotics, 2023).

Converted amounts (≈) assume the structure as drawn. Where a SMILES comes first, the peptide text is derived from it.

Series [1] has as its system HaCaT keratinocytes. To be noted: cited from earlier work.
The test system of series [2] is BALB/c 3T3 murine fibroblast cell line. Briefly: Cytotoxicity, neutral red uptake assay. The format is cell-based. To be noted: Balb/c 3T3, neutral red uptake, 48 h, tested 3.9–500 μg/mL. An excerpt: The BALB/c 3T3 murine fibroblast cell line was obtained from ATCC (American Type Culture Collection, Manassas, VA, USA). Primary human dermal fibroblasts were isolated by enzymatic digestion from skin biopsies in the Laboratory of Bioanalytical and Biodosimetry Methods, University of Latvia, in accordance with the approval of the Committee of Research Ethics of the Institute of Cardiology and Regenerative Medicine, University of Latvia. Cells were propagated in DMEM medium (Sigma, Irvine, UK), supplemented with 1% penicillin (100 U/mL)–streptomycin (100 μg/mL), and 10% calf serum (Sigma, St. Louis, MO, USA) for Balb/c 3T3 cell line and fetal bovine serum (Sigma, St. Louis, MO, USA) for primary dermal fibroblasts. All cultivations were performed in a humidified 5% CO2 atmosphere at 37 °C.
The cytotoxicity of the peptides was tested in the BALB/c3T3 cell line and primary dermal fibroblasts by the neutral red (NR) uptake assay. Cells were seeded in 96-well plates at a density of 5 × 10^3 cells per well. After 24 h of incubation, peptides in a concentration range of 3.9 to 500 μg/mL were added. Dilutions were made in a cell cultivation medium. Cultivation in the presence of extracts was performed for 48 h. Afterwards, plates were washed with phosphate-buffered saline (PBS) (Sigma, Irvine, UK), and a 25 µg/mL NR solution (Sigma, Irvine, UK) diluted in 5%-fetal-calf-serum-containing-media was added. After 3 h, incubation in a humidified 5% CO2 atmosphere at 37 °C, the plate was washed with PBS, and the NR taken up by viable cells was extracted using desorbing fixative (50% ethanol/1% acetic acid/49% water). Absorbance at 540 nm was measured using a microplate reader Tecan Infinite® 200 PRO (Tecan Group Ltd., Mannedorf, Switzerland). Cytotoxicity was expressed as a concentration-dependent reduction in the uptake of NR, compared to the untreated controls and calculated using the following equation: Cell viability (%)=Abs540nm(treatment)−Abs540nm(background)/Abs540nm(untreated control)−Abs540nm(background)×100%

In series [3] the test system is human peripheral blood mononuclear cells (PBMNCs). Nature of the series: Viability of PBMNCs, MTT reduction assay. The following applies: 24 h, 4 and 20 μg/mL with or without 5 µg/mL LPS, n = 3. In kind it is cell-based. The method, then:
(§1) The effect of the peptides was evaluated in human peripheral blood mononuclear cells (PBMNCs). Blood from healthy donors was collected in Monovette vacutainers containing EDTA. Blood was collected in accordance with the approval of the Committee of Research Ethics of the Institute of Cardiology and Regenerative Medicine, University of Latvia. Blood was diluted (1:2 ratio by volume) with 0.9% sodium chloride solution supplemented with 10 U/mL heparin and mononuclear cell fraction isolated by gradient centrifugation. Diluted blood samples were layered on Ficoll-Paque solution in ratio 2:1 (GE Healthcare, Chicago, IL, USA), and density gradient centrifugation was performed at 800× g for 20 min at room temperature in a swing-out centrifuge. Mononuclear cells containing buffy coats were aspirated and washed twice with phosphate-buffered saline and centrifuged at 600× g for 20 min at room temperature. […]
Viability of PBMNCs after incubation with peptides was evaluated using MTT reduction assay. […] Absorption was measured at 570 nm using Tecan Infinite® 200 PRO (Tecan Group Ltd., Mannedorf, Switzerland).
Blank wells without cells were used for the background measurement. Proliferation relative to control was calculated using the equation below. […]
A general note: Formazan colour is commonly taken as a measure of viable cells.

Series [4] concerns C. acnes. To be noted: cited from earlier work. As to the method: Five AMPs were examined earlier for treatment of individual bacteria related to skin and soft tissue infections, while none of them were tested against all ESCAPE pathogens simultaneously. Peptide R1 is a direct derivate of earlier published RP551 [47], with the replacement of non-proteinogenic amino acid, ornithine (O) by lysine (K) at the positions 3,8,11, and 14.

The test system of series [5] is TNF-α secretion in LPS stimulated PBMNCs. Briefly: TNF-α secretion by PBMNCs, ELISA. The following applies: 24 h. In kind it is cell-based, human. The method, then: as §1, with “temperature. The cell pellet was suspended in DMEM medium (Sigma, D6046, Irvine, UK) supplemented with 1% penicillin (100 U/mL)–streptomycin (100 μg/mL) and 10% fetal bovine serum (Sigma, St. Louis, MO, USA), and cells were seeded on 24-well plates at a density of 5 × 10^5 cells per well and incubated at 37 °C, 5% CO2.” for “temperature.”
(§2) Concentrations of TNF-α and IL-10 secreted in cultivation media by PBMNCs were determined using enzyme-linked immunosorbent assay (ELISA). […]
In general terms: An ELISA detects its analyte on a solid surface through an enzyme-linked reagent.

Series [6] relates to P. aeruginosa. Briefly: microbe, parasite or virus in culture. In kind it is cell-based, Pseudomonas aeruginosa. The following applies: 96-well plate, serial dilutions, 32 °C, 13–18 h, 200 rpm, OD 550 nm. The method, then:
Quantification of the antimicrobial resistance against various AMPs was carried out by measuring the bacterial growth in the presence of peptides at serial dilutes in 96 well plates in a microplate (96-well plate) reader Infinite® M200 PRO Multimode Microplate Reader (Tecan, Maennedorf, Switzerland) according to our recent reports. All bacterial strains were incubated at 32 °C for 13–18 h at 200 rpm. Optical density measurements (λ = 550 nm) were taken automatically at 10 min intervals. Antimicrobial resistance activity was quantified as the minimum inhibitory concentration (MIC)—the lowest concentration of a peptide which prevents growth of bacterial cells.

Series [7] deals with IL-10 secretion in LPS stimulated PBMNCs. Briefly: IL-10 secretion by PBMNCs, ELISA. In kind it is cell-based, human. To be noted: LPS and 20 μg/mL peptide, 24 h. As to the method:
as §1, with “temperature. The cell pellet was suspended in DMEM medium (Sigma, D6046, Irvine, UK) supplemented with 1% penicillin (100 U/mL)–streptomycin (100 μg/mL) and 10% fetal bovine serum (Sigma, St. Louis, MO, USA), and cells were seeded on 24-well plates at a density of 5 × 10^5 cells per well and incubated at 37 °C, 5% CO2.” for “temperature.”
as §2

For `CC(C)[C@H](N)C(=O)N[C@@H](CCCCN)C(=O)N[C@@H](CCCNC(=N)N)C(=O)N[C@@H](Cc1c[nH]c2ccccc12)C(=O)N[C@@H](CCCCN)C(=O)N[C@@H](CCCCN)C(=O)N[C@@H](Cc1c[nH]c2ccccc12)C(=O)N[C@@H](Cc1c[nH]c2ccccc12)C(=O)N[C@@H](CCCNC(=N)N)C(=O)N[C@@H](CCCCN)C(=O)N[C@@H](Cc1c[nH]c2ccccc12)C(=O)N[C@@H](CCCCN)C(=O)N[C@@H](CCCCN)C(=O)N[C@@H](Cc1c[nH]c2ccccc12)C(=O)N[C@H](C(=O)O)C(C)C` [LZ1, reference compound] (H-VKRWKKWWRKWKKWV-OH), the “concentrations without cytotoxic effect” value in series [1] is listed as “up to 200 μg/mL”. The “concentrations at which cytotoxic / reduced cell viability” value in series [2] was determined as 62.5 µg/mL.

`CC[C@H](C)[C@H](NC(=O)CNC(=O)[C@H](CCCCN)NC(=O)[C@H](Cc1ccc(O)cc1)NC(=O)[C@H](CS)NC(=O)[C@@H](NC(=O)[C@H](CCCCN)NC(=O)[C@H](Cc1ccccc1)NC(=O)[C@H](CS)NC(=O)[C@H](Cc1c[nH]c2ccccc12)NC(=O)[C@@H](N)CCCNC(=N)N)C(C)C)C(=O)N[C@@H](CS)C(=O)N[C@@H](Cc1ccc(O)cc1)C(=O)N[C@@H](CCCCN)C(=O)N[C@@H](CCCCN)C(=O)N[C@@H](CS)C(=O)N[C@@H](CCCCN)C(=O)O` [RP556] (H-RWCFKVCYKGICYKKCK-OH; N-terminus and C-terminus assumed): the “reduction of PBMNC viability” value in series [3] is given as not above 17.5%. In addition, the “antimicrobial activity against C. acnes” value in series [4] is 2 to 4 µg/mL. For the same compound, in series [5], the “increase of TNF-α secretion” value is reported as “below 18.3%”. In series [6], the “MIC P. aeruginosa” value was found to be 2 µg/mL (≈ 0.927 µM). In addition, in series [7], the “increase of IL-10 secretion compared to LPS alone” value turned out to be 35.56%. Moreover, in series [2], the “concentrations at which cytotoxic / reduced cell viability” value was “only at the highest concentration”.
